# US8084457B2, “Pharmaceutically active 4,6-disubstituted aminopyrimidine derivatives as modulators of protein kinases” (Lead Discovery Center GmbH, priority 2003, dated 2011)
# Experiments:
# Format in all cases: biochemical
# [1] = target: T1, CDK9/Cyclin T1 (Homo sapiens, UniProt P50750); assay: Kinase assay using CDK9/Cyclin T1; conditions: read-out: CDK9 (activity range)
# T1 construct: made in house; host or cells: HEK293 cells, recombinant adenovirus
# Method in brief: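 Recombinant CDK9/Cyclin T1 produced via adenoviral expression from gateway-cloned cDNAs. Kinase reaction run essentially per a published protocol.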
# [2] = target: T2, CDK2/CyclinA (Homo sapiens, UniProt P24941); assay: Kinase assay determining CDK2/CyclinA activity; conditions: read-out: CDK2 (activity range)
# T2 construct: purchased Proqinase
# Procedure: Kinase Assays Determining CDK2/CyclinA and CDK5/p35 Activity:
# Kinase assays were performed as described by the manufacturers recommendations (Proqinase for CDK2/CyclinA and Upsate for CDK5/p35).
# [3] = target: CDK4 (Homo sapiens, UniProt P11802); assay: Kinase assay, CDK4 activity range (Table 2)
# Sequence of CDK4 (P11802 whole entry, species assumed): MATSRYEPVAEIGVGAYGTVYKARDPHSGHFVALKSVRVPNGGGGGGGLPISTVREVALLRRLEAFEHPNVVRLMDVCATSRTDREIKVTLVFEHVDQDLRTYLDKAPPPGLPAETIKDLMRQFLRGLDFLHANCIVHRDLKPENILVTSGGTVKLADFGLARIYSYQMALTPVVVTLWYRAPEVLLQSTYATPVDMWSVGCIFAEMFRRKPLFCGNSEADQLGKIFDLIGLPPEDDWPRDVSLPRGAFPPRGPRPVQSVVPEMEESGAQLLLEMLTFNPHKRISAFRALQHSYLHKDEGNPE
# Sequence of CDK4 (P24385 whole entry partner, species assumed): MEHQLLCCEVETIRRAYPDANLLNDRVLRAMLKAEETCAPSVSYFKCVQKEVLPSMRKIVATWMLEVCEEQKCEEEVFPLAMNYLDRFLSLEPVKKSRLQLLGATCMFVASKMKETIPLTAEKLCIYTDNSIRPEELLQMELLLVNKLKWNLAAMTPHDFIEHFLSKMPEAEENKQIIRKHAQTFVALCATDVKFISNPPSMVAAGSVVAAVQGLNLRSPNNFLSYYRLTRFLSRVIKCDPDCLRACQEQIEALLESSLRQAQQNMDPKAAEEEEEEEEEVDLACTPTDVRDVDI
# T1 sequence (P50750 whole entry): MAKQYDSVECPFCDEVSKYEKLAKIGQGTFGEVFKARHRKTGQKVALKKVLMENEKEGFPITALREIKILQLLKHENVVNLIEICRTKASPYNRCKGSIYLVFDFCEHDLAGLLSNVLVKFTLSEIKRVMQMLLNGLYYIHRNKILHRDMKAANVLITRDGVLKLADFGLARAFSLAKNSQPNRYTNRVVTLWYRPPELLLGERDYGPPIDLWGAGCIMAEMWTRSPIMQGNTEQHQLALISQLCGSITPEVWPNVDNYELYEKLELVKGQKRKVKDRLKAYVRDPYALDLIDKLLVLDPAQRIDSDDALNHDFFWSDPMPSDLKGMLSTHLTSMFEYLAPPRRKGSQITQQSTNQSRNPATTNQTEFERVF
# T1 sequence (O60563 whole entry partner): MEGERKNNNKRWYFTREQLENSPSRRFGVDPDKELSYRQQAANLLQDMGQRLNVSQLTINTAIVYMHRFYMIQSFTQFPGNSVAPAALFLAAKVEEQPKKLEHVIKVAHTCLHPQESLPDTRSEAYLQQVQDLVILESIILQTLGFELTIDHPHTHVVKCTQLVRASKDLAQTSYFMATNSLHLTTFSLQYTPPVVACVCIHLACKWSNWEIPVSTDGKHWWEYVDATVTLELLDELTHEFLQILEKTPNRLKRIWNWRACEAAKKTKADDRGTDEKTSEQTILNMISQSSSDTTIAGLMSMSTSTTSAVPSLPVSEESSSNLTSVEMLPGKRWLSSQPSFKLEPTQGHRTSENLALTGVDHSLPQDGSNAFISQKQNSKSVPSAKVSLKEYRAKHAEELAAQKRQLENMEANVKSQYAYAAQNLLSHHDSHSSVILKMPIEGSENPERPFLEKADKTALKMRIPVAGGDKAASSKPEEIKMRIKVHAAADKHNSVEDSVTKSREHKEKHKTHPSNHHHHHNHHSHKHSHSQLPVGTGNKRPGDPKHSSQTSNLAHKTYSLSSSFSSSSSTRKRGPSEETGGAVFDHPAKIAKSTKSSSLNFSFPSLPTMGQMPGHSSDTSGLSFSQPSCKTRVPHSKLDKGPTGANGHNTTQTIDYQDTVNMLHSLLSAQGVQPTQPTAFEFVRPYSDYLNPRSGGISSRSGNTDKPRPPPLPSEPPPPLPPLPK
smiles,measurement,setting,value
COc1ccccc1-c1cc(Nc2cccc(S(N)(=O)=O)c2)ncn1 [(150)],IC50,[1],0.001 to 1 µM
same,IC50,[2],0.001 to 1 µM
same,IC50,[3],10 to 250 µM
COc1ccc(-c2cc(Nc3ccc(NC(=O)[C@@H]4CCCCN4)cc3)ncn2)c(OC)c1 [(187)],IC50,[1],0.001 to 1 µM
same,IC50,[2],1 to 10 µM
same,IC50,[3],0.001 to 1 µM
COc1ccccc1-c1cc(Nc2ccc(NC(=O)[C@H]3CCCN3)cc2)ncn1 [(91)],IC50,[1],0.001 to 1 µM
same,IC50,[2],1 to 10 µM
same,IC50,[3],1 to 10 µM
Cc1ccc(Nc2cc(-c3ccccc3)ncn2)cc1NS(C)(=O)=O [(106)],IC50,[1],0.001 to 1 µM
same,IC50,[2],0.001 to 1 µM
same,IC50,[3],10 to 250 µM
COc1ncccc1-c1cc(Nc2ccc(NC(=O)[C@@H]3CCCCN3)cc2)ncn1 [(171)],IC50,[1],0.001 to 1 µM
same,IC50,[2],1 to 10 µM
same,IC50,[3],1 to 10 µM
NC1CCCCC1NC(=O)c1ccc(Nc2cc(-c3ccccc3OCc3ccccc3)ncn2)cc1 (stereo not shown) [(198)],IC50,[1],0.001 to 1 µM
same,IC50,[2],0.001 to 1 µM
same,IC50,[3],0.001 to 1 µM
COc1ccccc1-c1cc(Nc2ccc(NC(=O)C3(N)CCCC3)cc2)ncn1 [(68)],IC50,[1],0.001 to 1 µM
same,IC50,[2],1 to 10 µM
same,IC50,[3],1 to 10 µM
CN[C@H](C(=O)Nc1ccc(Nc2cc(-c3ccccc3OC)ncn2)cc1)c1ccccc1 [(82)],IC50,[1],0.001 to 1 µM
same,IC50,[2],1 to 10 µM
same,IC50,[3],1 to 10 µM
COc1ccccc1-c1cc(Nc2cccc(N)c2)ncn1 [(124)],IC50,[1],0.001 to 1 µM
same,IC50,[2],0.001 to 1 µM
same,IC50,[3],1 to 10 µM
CC[C@H](C)[C@H](N)C(=O)Nc1ccc(Nc2cc(-c3ccccc3OC)ncn2)cc1 [(140)],IC50,[1],0.001 to 1 µM
same,IC50,[2],1 to 10 µM
same,IC50,[3],1 to 10 µM
O=C(Nc1ccc(Nc2cc(-c3ccccc3OC(F)(F)F)ncn2)cc1)[C@@H]1CCCCN1 [(190)],IC50,[1],1 to 10 µM
same,IC50,[3],1 to 10 µM
CCN(CC)CCC(=O)Nc1ccc(Nc2cc(-c3ccccc3OC)ncn2)cc1 [(64)],IC50,[1],0.001 to 1 µM
same,IC50,[2],1 to 10 µM
same,IC50,[3],1 to 10 µM
Cc1ccc(Nc2cc(-c3cccc(C(F)(F)F)c3)ncn2)cc1NS(C)(=O)=O [(107)],IC50,[1],10 to 250 µM
same,IC50,[2],10 to 250 µM
same,IC50,[3],10 to 250 µM
NCCCOc1ccccc1-c1cc(Nc2ccc(NC(=O)c3ccc(N)cc3)cc2)ncn1 [(103)],IC50,[1],0.001 to 1 µM
same,IC50,[2],1 to 10 µM
same,IC50,[3],10 to 250 µM
NC(=O)c1ccc(Nc2cc(-c3ccccc3OCc3ccccc3)ncn2)cc1 [(95)],IC50,[1],0.001 to 1 µM
same,IC50,[2],0.001 to 1 µM
same,IC50,[3],1 to 10 µM
COc1ccccc1-c1cc(Nc2ccc(NC(=O)CC3CCCCN3)cc2)ncn1 (stereo not shown) [(59)],IC50,[1],0.001 to 1 µM
same,IC50,[2],1 to 10 µM
same,IC50,[3],0.001 to 1 µM
COc1ccccc1-c1cc(Nc2ccc(NC(=O)C3CCN(C)CC3)cc2)ncn1 [(89)],IC50,[1],0.001 to 1 µM
same,IC50,[2],1 to 10 µM
same,IC50,[3],1 to 10 µM
COc1ccccc1-c1cc(Nc2ccc(NC(C)=O)cc2)ncn1 [(10)],IC50,[1],0.001 to 1 µM
same,IC50,[2],0.001 to 1 µM
same,IC50,[3],1 to 10 µM
COc1ccccc1-c1cc(Nc2cccc(NC(=O)[C@@H]3CCCCN3)c2)ncn1 [(128)],IC50,[1],0.001 to 1 µM
same,IC50,[2],0.001 to 1 µM
same,IC50,[3],1 to 10 µM
COc1ccccc1-c1cc(Nc2ccc(NC(=O)CCN)cc2)ncn1 [(102)],IC50,[1],0.001 to 1 µM
same,IC50,[2],1 to 10 µM
same,IC50,[3],0.001 to 1 µM
CSc1ccccc1-c1cc(Nc2ccc(NC(=O)[C@@H]3CCCCN3)cc2)ncn1 [(189)],IC50,[1],0.001 to 1 µM
same,IC50,[2],1 to 10 µM
same,IC50,[3],0.001 to 1 µM
COc1ccccc1-c1cc(Nc2ccc(NC(=O)CN(C)C)cc2)ncn1 [(46)],IC50,[1],0.001 to 1 µM
same,IC50,[2],1 to 10 µM
same,IC50,[3],1 to 10 µM
COc1ccccc1-c1cc(Nc2ccc(NC(=O)C3(N)CCCCC3)cc2)ncn1 [(66)],IC50,[1],0.001 to 1 µM
same,IC50,[2],1 to 10 µM
same,IC50,[3],1 to 10 µM
COc1ccccc1-c1cc(Nc2ccc(NC(=O)[C@@H](N)C(C)C)cc2)ncn1 [(143)],IC50,[1],0.001 to 1 µM
same,IC50,[2],1 to 10 µM
same,IC50,[3],1 to 10 µM
COc1ccccc1-c1cc(Nc2ccc(C(=O)N3CCOCC3)cc2)ncn1 [(147)],IC50,[1],1 to 10 µM
same,IC50,[3],1 to 10 µM
